In assay [1] the test system is mice administered ferrous chloride into the spinal subarachnoid cavity. Briefly: Antioxidative action in vivo: abnormal behavior and mortality after ferrous chloride into the spinal subarachnoid cavity. The arrangement: species or system mouse. The note with it: male ICR mice, 30 minutes before ferrous chloride, score after 60 minutes. The procedure: The antioxidative action in vivo of the compounds according to the present invention was evaluated according to the method described in the Journal of Medical Chemistry (J. Med. Chem., 1997, vol. 40, pp. 559 to 573) based on the inhibitory effects on abnormal behavior and mortality rate following administration of ferrous chloride into the spinal subarachnoid cavity of mice. Male S1c:ICR mice (age: 5 weeks) (purchased from Japan SLC) were used in groups of 3 to 7 animals each, and were administered 5 μl of aqueous physiological saline solution containing 50 mM ferrous chloride into the spinal column between the 5th and 6th lumbar vertebra. […] The test compounds were dissolved or suspended in an aqueous physiological saline solution or an aqueous physiological saline solution containing 1% polyethylene hardened castor oil (manufactured by Nikko Chemicals CO., LTD. under the name of NIKKOL HCO-60), and administered intraperitoneally or orally 30 minutes before the administration of ferrous chloride. The 50% inhibitory dose (hereinafter, abbreviated as ID50) of each test compound was determined from the score of a control group (physiological saline treated group) and the score of each test compound treated group.

In assay [2] the test system is lipid peroxides in retina homogenate. Briefly: Retina migration: formation of lipid peroxides in retina ex vivo after oral administration. The arrangement: species or system rat. The note with it: male SD rats, retinas removed 30 minutes later, auto-oxidized 1 hour at 37° C. The protocol: The retina migration of the compounds according to the present invention was evaluated. The test compounds dissolved or suspended in 0.1 N aqueous hydrochloric acid solution or 1% polyethylene hardened castor oil (Nikkol HCO-60) solution were orally administered to male SD rats (age: 6 weeks) in groups of three animals each followed by removing both eyes 30 minutes later and separating the retinas while cooling with ice. The retinas were homogenized with a Polytron Microhomogenizer (NS-310E: manufactured by Niti-On Medical and Physical Instruments) in 0.1 M Tris-HCl buffer (pH 7.4) while cooling with ice to prepare 5% homogenates. The homogenates were then auto-oxidized for 1 hour at 37° C., and the amounts of lipid peroxide that formed were quantified using the thiobarbituric acid method (Masugi, et al., Vitamin, 51, 21 to 29, 1977).

Assay [3] concerns the target T1, 15-lipoxygenase (15-LO) (Oryctolagus cuniculus, UniProt P12530).
T1 construct: 15-LO obtained from rabbit reticulocytes; from tissue; host or cells: rabbit reticulocytes
T1 sequence (P12530 1-663): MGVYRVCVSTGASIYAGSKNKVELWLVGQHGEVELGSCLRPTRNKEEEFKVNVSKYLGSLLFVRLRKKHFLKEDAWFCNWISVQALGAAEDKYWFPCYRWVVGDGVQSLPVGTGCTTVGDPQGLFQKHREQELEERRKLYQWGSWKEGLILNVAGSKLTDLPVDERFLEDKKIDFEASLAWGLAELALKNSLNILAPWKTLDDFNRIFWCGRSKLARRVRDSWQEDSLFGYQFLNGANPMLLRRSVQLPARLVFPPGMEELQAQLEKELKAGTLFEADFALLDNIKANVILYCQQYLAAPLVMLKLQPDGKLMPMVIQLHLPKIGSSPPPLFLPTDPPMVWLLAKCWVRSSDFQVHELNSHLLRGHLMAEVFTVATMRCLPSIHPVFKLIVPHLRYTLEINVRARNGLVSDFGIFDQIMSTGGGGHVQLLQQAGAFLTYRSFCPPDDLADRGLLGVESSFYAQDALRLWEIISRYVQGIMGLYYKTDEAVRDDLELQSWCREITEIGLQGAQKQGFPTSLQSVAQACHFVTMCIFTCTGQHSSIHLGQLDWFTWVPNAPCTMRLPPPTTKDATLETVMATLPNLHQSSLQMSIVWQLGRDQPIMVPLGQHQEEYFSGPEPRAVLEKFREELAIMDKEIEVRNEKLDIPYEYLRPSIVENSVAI
The assay can be described thus: 15-LO inhibitory activity (15-LO from rabbit reticulocytes, linoleic acid, 15-HETE formation). The class given is biochemical. The note with it: 256 μM linoleic acid, 4° C., read-out: Lipoxygenase inhibitory action 50% inhibitory concentration (IC50 μm) 15-LO. The procedure: 15-LO inhibitory activity was measured using a variation of the method of Auerbach et al. (Auerbach B. J. et al., Anal. Biochem., 201, 375 to 380, 1992). Namely, after pre-incubating (4° C., 15 minutes) in phosphate buffer (pH 7.4) 15-LO obtained from rabbit reticulocytes and a test compound dissolved in DMSO (final concentration: 1%), 256 μM linoleic acid was added and the resulting solution was additionally incubated (4° C., 10 minutes). The resulting 15-HETE that formed was quantified by spectrophotometry (OD660 nm), and the 50% formation inhibitory concentration (μM) of the test compound with respect to 15-LO was calculated from that value.

Assay [4] has as its system lipid peroxide in homogenates of brain, heart and kidneys. The assay can be described thus: Tissue migration: antioxidative action on lipids ex vivo in tissue homogenates after intraperitoneal administration. The note with it: Rattus norvegicus, ip, 0.5 h, male SD rats, 100 mg/kg intraperitoneally, 30 minutes after administration. The procedure:
(§1) The antioxidative action on lipids in vitro of the compounds according to the present invention was evaluated in accordance with the method of Malvy et al. (Malvy C. et al.,) described in Biochemical and Biophysical Research Communications, 1980, vol. 95, pp. 734 to 737,) by measuring the lipid peroxide activity in a rat brain homogenate. Namely, the rat brain was removed followed by the addition of five volumes of an aqueous solution of phosphate buffered saline (pH 7.4) (hereinafter, abbreviated as PBS) to the brain while cooling with water, homogenizing with a Teflon homogenizer, and centrifuging for 20 minutes at 10,000 g to collect the supernatant as a brain homogenate. 500 μM cysteine, 5 μM ferrous sulfate, and 100 mM KCl were added to the resulting brain homogenate followed by incubating for 30 minutes at 37° C. and measuring the malondialdehyde that formed due to decomposition of lipid peroxide using the thiobarbituric acid method. The 50% inhibitory concentrations (hereinafter, abbreviated as IC50) of the compounds according to the present invention were then determined from the measured values.
Tissue migration of the compounds according to the present invention was evaluated by measuring the antioxidative action on lipids ex vivo. A test compound dissolved or suspended in an aqueous physiological saline solution or aqueous physiological saline solution containing 1% polyethylene hardened castor oil (Nikko Chemicals: Nikkol HCO-60) was intraperitoneally administered to male SD rats (age: 6 weeks) (purchased from Japan SLC) in groups of 3 animals each at a dose of 100 mg/kg. The animals were sacrificed by exsanguination by severing the carotid artery 30 minutes after administration followed by removing the brain, heart and kidneys. The lipid peroxide activity of homogenates of each tissue was measured using the method described in Example 3. The inhibition rates of the test compounds in each tissue were determined from the amounts of lipid peroxide formed in a control group (physiological saline dose group) and test compound groups.

Assay [5] has as its target T2, 5-lipoxygenase (5-LO) (Homo sapiens, UniProt P09917).
T2 construct: human peripheral blood mononuclear cells; endogenous in cells; host or cells: human peripheral blood mononuclear cells
T2 sequence (P09917 1-674): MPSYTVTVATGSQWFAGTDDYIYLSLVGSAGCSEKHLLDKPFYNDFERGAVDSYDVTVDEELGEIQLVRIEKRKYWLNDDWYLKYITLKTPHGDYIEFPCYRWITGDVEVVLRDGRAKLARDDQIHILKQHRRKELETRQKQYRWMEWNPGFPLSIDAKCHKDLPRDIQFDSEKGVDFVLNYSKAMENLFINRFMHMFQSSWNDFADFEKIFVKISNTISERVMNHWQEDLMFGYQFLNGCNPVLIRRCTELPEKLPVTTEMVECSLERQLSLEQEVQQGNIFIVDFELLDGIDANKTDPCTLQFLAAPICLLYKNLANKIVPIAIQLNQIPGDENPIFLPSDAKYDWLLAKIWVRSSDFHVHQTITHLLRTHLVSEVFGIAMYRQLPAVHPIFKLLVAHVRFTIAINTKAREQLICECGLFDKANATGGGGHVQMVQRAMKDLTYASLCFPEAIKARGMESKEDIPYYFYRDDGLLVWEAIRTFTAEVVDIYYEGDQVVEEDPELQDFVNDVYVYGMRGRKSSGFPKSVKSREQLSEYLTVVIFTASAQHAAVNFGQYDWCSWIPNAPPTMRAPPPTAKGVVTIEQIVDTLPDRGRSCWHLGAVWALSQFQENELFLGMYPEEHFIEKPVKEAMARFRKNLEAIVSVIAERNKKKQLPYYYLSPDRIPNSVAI
The assay can be described thus: 5-LO inhibitory activity (leucotriene B4 formation in human peripheral blood mononuclear cells, A23187). It counts as cell-based. The note with it: 30 μM A23187, read-out: Lipoxygenase inhibitory action 50% inhibitory concentration (IC50 μm) 5-LO. The protocol: 5-LO inhibitory activity was measured using a variation of the method of Carter et al. (Carter G. W. et al., J. Pharmacol. Exp. Ther., 256, 929 to 937, 1991). Namely, after pre-incubating (37° C., 15 minutes) in Hank's solution human peripheral blood mononuclear cells and a test compound dissolved in DMSO (final concentration: 1%), 30 μM A23187 was added and the resulting solution was additionally incubated (37° C., 30 minutes). The resulting leucotriene B4 that formed was quantified by enzyme immunoassay, and the 50% formation inhibitory concentration (μM) of the test compound with respect to 5-LO was calculated from that value.

Assay [6] concerns lipid peroxide in rat brain homogenate. Briefly: Antioxidative action on lipids in vitro (lipid peroxide activity in rat brain homogenate, thiobarbituric acid method). It counts as biochemical. The note with it: 500 μM cysteine, 5 μM ferrous sulfate, 100 mM KCl, 30 minutes at 37° C., malondialdehyde, read-out: 50% inhibitory concentration of anti-lipid peroxide action in vitro (IC50). The procedure:
as §1

The mark [7] stands for this setting: brain, read-out: Inhibition rate of ex vivo anti-lipid peroxide action (%) Brain.
Where [8] appears, read: heart, read-out: Inhibition rate of ex vivo anti-lipid peroxide action (%) Heart.
Where [9] appears, read: kidney, read-out: Inhibition rate of ex vivo anti-lipid peroxide action (%) Kidney.

Read-outs that look alike come from different tables or passages of the source.

The values below come from US20060189673A1, “Phenylazole compound, production process therefor and antioxidant” (Nippon Soda Co., Ltd., priority 2003, published 2006).

As a reminder, the inhibition is the change of the read-out against control, counted positive when it falls.

With `Cc1c(C)c2c(c(C)c1N)CC(C)(C(=O)Nc1ccc(-c3ccn[nH]3)cc1)O2` (stereo not drawn) [Compound 37], the “Antioxidative action in vivo 50% inhibitory dose (ID50 mg/kg) Intraperitoneal administration” value in assay [1] came out at 12 mg/kg. Further, the “Antioxidative action in vivo 50% inhibitory dose (ID50 mg/kg) Oral administration” value in assay [1] came out at 27 mg/kg. Further, the “Inhibitory effect on formation of lipid peroxides in retina ex vivo 30% inhibitory concentration (ID30 mg/kg, oral administration)” value in assay [2] is on record as 5.2 mg/kg. For the same compound, the values for the IC50 in assay [3], in assay [5] and in assay [6] were 2060 nM, 230 nM and 800 nM, respectively. In addition, the figures for the inhibition at 100 mg/kg in assay [4] (setting [7]), in assay [4] (setting [8]) and in assay [4] (setting [9]) were 95%, 87% and 89%, respectively.
Consider `Cc1c(C)c2c(c(C)c1O)CC(C)(OC=Nc1ccc(-n3ccnc3)cc1)O2` (stereo not drawn) [Control drug 1, reference compound], for which the “Antioxidative action in vivo 50% inhibitory dose (ID50 mg/kg) Intraperitoneal administration” value in assay [1] is listed as over 30 mg/kg. Also, the “Antioxidative action in vivo 50% inhibitory dose (ID50 mg/kg) Oral administration” value in assay [1] was over 30 mg/kg. In addition, the inhibition at 100 mg/kg came to 68% in assay [4] (setting [7]), 59% in assay [4] (setting [8]) and 75% in assay [4] (setting [9]). Besides, in assay [6], the IC50 worked out at 230 nM.
With `Cc1c(C)c2c(c(C)c1N)CC(C)(C(=O)Nc1ccc(-n3ccnc3)cc1)O2` (racemic) [Compound 1, (±)-(5-amino-2,4,6,7-tetramethyldihydrobenzofuran-2-yl)-N-[4-(imidazol-1-yl)phenyl]carboxamide], the “Antioxidative action in vivo 50% inhibitory dose (ID50 mg/kg) Intraperitoneal administration” value in assay [1] is given as 6.8 mg/kg. Besides, the “Antioxidative action in vivo 50% inhibitory dose (ID50 mg/kg) Oral administration” value in assay [1] is reported as 9.7 mg/kg. Besides, the “Inhibitory effect on formation of lipid peroxides in retina ex vivo 30% inhibitory concentration (ID30 mg/kg, oral administration)” value in assay [2] is 16 mg/kg. The inhibition at 100 mg/kg in assay [4] (setting [7]) worked out at 83%; in assay [4] (setting [8]), 80%; in assay [4] (setting [9]) it was 87%.
Turning to `Cc1c(C)c2c(c(C)c1O)CCC(C)(OC=Nc1ccc(-n3ccnc3)cc1)O2` (stereo not drawn) [Control drug 2, reference compound], the “Antioxidative action in vivo 50% inhibitory dose (ID50 mg/kg) Intraperitoneal administration” value in assay [1] turned out to be 20 mg/kg. In addition, the “Antioxidative action in vivo 50% inhibitory dose (ID50 mg/kg) Oral administration” value in assay [1] is on record as 53 mg/kg. The inhibition at 100 mg/kg in assay [4] (setting [7]) is 45%; in assay [4] (setting [8]), 57%; in assay [4] (setting [9]) it was 84%. In addition, the IC50 in assay [6] stood at 230 nM.
